Measured values taken from patent publication US20120329872A1, “Ready-To-Eat Feed For Domestic Pets” (Alzchem Trostberg GmbH, priority 2006, published 2012).

Columns and labels:
[1] = Stability in water (pH 7) heated in an autoclave to 160° C. for 30 minutes (model of feed extrusion); format: physicochemical
Protocol: For this purpose a model system was used for the extrusion of a moist feed paste at 160° C. […] Subsequently the content of creatine and guanidinoacetic acid was determined.

[2] = Storage stability in water at pH 5 over 60 days (comparable to canned feeds); format: physicochemical
[3] = dogs, oral, about 40 mg/kg daily for several weeks; cited from earlier work
[4] = 200 patients, 30 mg GAA/kg daily for one year, in combination with betaine; cited from earlier work
Staphylococcus aureus = conditions: bacterial infections (Staphylococcus aureus); cited from earlier work

Compound | content remaining, of the original content ([1]; water pH 7, 30 minutes at 160° C., autoclave) | content recovered after storage ([2]; water pH 5, after 60 days) [%] | body weight change [3] | nitrogen balance [3] | content remaining, of the original content ([1]; 0.5 h, pH 7) | degradation after storage ([2]; water pH 5, after 60 days) | storage stability compared with creatine (FIG. 2) ([2]; water pH 5, over 60 days) | side effects [4] | antibacterial action in animal experiments (Staphylococcus aureus)
CN(CC(=O)O)C(=N)N [creatine, reference compound] | less than 20% | 87 | considerable increase in weight | positive nitrogen balance | – | – | – | – | –
N=C(N)NCC(=O)O [guanidinoacetic acid] | – | – | – | – | more than 80% | no degradation | significantly higher storage stability than creatine | not observed | successfully used against bacterial infections
